Measured values published in patent US20170044100A1, “INHIBITORS OF DRUG-RESISTANT MYCOBACTERIUM TUBERCULOSIS” (THE JOHNS HOPKINS UNIVERSITY, priority 2014, published 2017).
Values after ≈ are worked out from the molar mass of the structure shown. Where two headings read alike, the source gives them in different places.

Legend:
[1] = tested on: M. tuberculosis strain H37Rv; experiment: microbe, parasite or virus in culture; assay type: cell-based, Mycobacterium tuberculosis; set-up: MICMABA: unit not given here; settings: for MICMABA: H37Rv, MABA, Table 9; for MIC: Mycobacterium tuberculosis
[2] = tested on: Vero cells; experiment: Cytotoxicity assay on Vero cells (alamar blue); settings: for IC50: Chlorocebus sabaeus, Vero
[3] = in vitro; settings: African green monkey, IC50 (cytotoxicity against Vero cells), Table 1
[4] = tested on: M. tuberculosis H37Rv; experiment: microbe, parasite or virus in culture; assay type: cell-based, Mycobacterium tuberculosis; set-up: MICBD / MBCBD: unit not given here; settings: for MBCBD / MICBD: H37Rv, broth dilution, Table 9; for MBC: Mycobacterium tuberculosis, H37RV, read-out: minimum bactericidal concentration (MBC)
[5] = tested on: V4207 (drug susceptible strain of M. tuberculosis); experiment: microbe, parasite or virus in culture; assay type: cell-based; settings: Mycobacterium tuberculosis, MABA, read-out: MIC V4207 (DS)
[6] = Cytotoxicity assay on Vero cells (alamar blue); settings: African green monkey, Vero cells (ATCC CCL-81)
[7] = set-up: species or system BALB/c mice; settings: mouse, in vivo
Description: Female BALB/c mice (20 g each, Charles River Laboratories) were given a single dose of compound 12 at 100 mg/kg by oral gavage in a volume of 0.2 mL. […] Mouse lungs were removed, weighed and stored at −80° C. Plasma was separated by centrifugation at 12,000 x g for 20 min at 4° C. and stored at −80° C. Mouse lungs were homogenized by bead-beating in 0.5 mL of liquid chromatography/mass spectrometry (LC/MS) water and supernatants were recovered by centrifugation at 4° C. for 20 min. Concentrations of compound 12 in plasma and lung homogenate supernatants were analyzed with LC-tandem MS (LC-MS/MS, AB SCIEX QTRAP 5500 system) with compound 2 as internal standard. MS detection of mass transitions 299.01/146.1 and 299.01/131.1 was carried out. Concentration calculation was done with MultiQuant Software (Version 2.1, AB SCIEX). The pharmacokinetic profile of the test compound was analyzed from plasma and lung concentration-time data after oral administration.
A single 100 mg/kg dose of compound 12 was administered to 24 mice (3 per time point). Plasma and lung concentration of compound 12 was determined by liquid chromatography-tandem mass spectrometry.

[8] = tested on: M. tuberculosis H37Rv; assay type: in vivo, BALB/c mice
[9] = tested on: M. tuberculosis H37Rv; assay type: cell-based, Mycobacterium tuberculosis; settings: 4× MIC
[10] = control strains H37Rv and V4207, read-out: MIC
[11] = parental H37Rv strain, read-out: MIC for H37Rv
[12] = read-out: IC50 Vero Cells, Vero cells, Table 9

SMILES | MICMABA [1] | MIC ([1]; H37RV) | MIC [1, 10] | MIC [1, 11] | IC50 [2, 12] | IC50 [3] | MBCBD [4] | MICBD [4] | MBC [4] | MIC [5] | other results
Cc1cc(C)c2cc(C(=O)NC3CCCCC3)[nH]c2c1 [Compound 3, N-Cyclohexyl-4,6-dimethyl-1H-indole-2-carboxamide] | 0.125 | 0.93 µM | 0.125 to 0.25 µg/mL | 0.125 to 0.25 µg/mL | > 64 µg/mL | > 200 µM | 0.25 | 0.25 | 0.25 µg/mL (≈ 0.925 µM) | 0.93 µM (≈ 0.251 µg/mL) | Selectivity Index [2]: >256; selectivity index [2]: > 256; IC50 for Vero cell viability ([2]; Vero cell line): 16 µg/mL
Cc1cc(C)c2cc(C(=O)Nc3ccccc3)[nH]c2c1 [Compound 4, N-Phenyl-4,6-dimethyl-1H-indole-2-carboxamide] | 1 | 3.8 µM | – | – | > 64 µg/mL | > 200 µM | 8 | 1 | – | – | –
Cc1cc(C)c2cc(C(=O)NC3CCCCCCC3)[nH]c2c1 [Compound 12, N-Cyclooctyl-4,6-dimethyl-1H-indole-2-carboxamide] | 0.0039 | 0.013 µM | 0.0039 µg/mL | 0.0039 µg/mL | – | – | – | – | 0.0078 µg/mL (≈ 0.0261 µM) | 0.026 µM (≈ 0.00776 µg/mL) | MIC for H37Rv ([1]; parental H37Rv strain): 0.0039 µg/mL; IC50 at 72 h [6]: 54 µM; IC50 ([2]; read-out: IC50 Vero Cells): 16 µg/mL (≈ 53.6 µM); Selectivity Index ([2]; Vero IC50 versus MIC, Table 9): 4000; selectivity index ([2]; toxicity versus MIC): 4000; oral bioavailability in mice [7]: orally bioavailable; AUC0-24, lung ([7]; po, 100 mg/kg): 31.40 mg·h/kg; Mean lung CFU counts (standard deviation), Day 7 ([8]; 33.3 mg/kg oral gavage daily (5 days per week)): 7.184 (0.244); Mean lung CFU counts (standard deviation), Day 14 ([8]; 33.3 mg/kg oral gavage daily): 7.001 (0.206); Mean lung CFU counts (standard deviation), Day 28 ([8]; 33.3 mg/kg oral gavage daily): 6.919 (0.112); Mean lung CFU counts (standard deviation), Day 7 ([8]; 100 mg/kg oral gavage daily): 6.902 (0.243); Mean lung CFU counts (standard deviation), Day 14 ([8]; 100 mg/kg oral gavage daily): 7.122 (0.148); Mean lung CFU counts (standard deviation), Day 28 ([8]; 100 mg/kg oral gavage daily): 6.803 (0.068); Mean lung CFU counts (standard deviation), Day 7 ([8]; 300 mg/kg oral gavage daily): 6.768 (0.329); Mean lung CFU counts (standard deviation), Day 14 ([8]; 300 mg/kg oral gavage daily): 6.981 (0.305); Mean lung CFU counts (standard deviation), Day 28 ([8]; 300 mg/kg oral gavage daily): 6.746 (0.157); lung CFU counts compared to untreated mice ([8]; after four weeks of treatment, 33, 100 and 300 mg/kg daily oral gavage): significantly lower; time to kill at least 4 log10 CFUs [9]: ≤ 5 days
